Source: publication PMC8226862, “Design, Synthesis and Anticancer Activity of a New Series of N-aryl-N′-[4-(pyridin-2-ylmethoxy)benzyl]urea Derivatives” (Molecules, 2021)

What was measured:
[1] = test system: HCT116 (colon cancer cell line); experiment: MTT antiproliferative assay, HCT116; assay type: cell-based, human; conditions: 96 h incubation
Method: (§1) The target compounds were evaluated for their antiproliferative activity against different human cancer cell lines, including A549 (non-small cell lung cancer cell line), MCF-7 (breast cancer cell line), HCT116 (colon cancer cell line), PC-3 (prostate cancer cell line) and HL7702 (human liver normal cell line) by using the MTT assay with sorafenib as the control drug.
(§2) The antiproliferative activities of target compounds were determined using a standard MTT assay. Exponentially growing cells A549 (1.5 × 10^3 cells/well), MCF-7 (2.2 × 10^3 cells/well), HCT-116 (800 cells/well), PC-3 (2.0 × 10^3 cells/well) and HL7702 (5.0 × 10^3 cells/well) were seeded into 96-well plates and incubated for 24 h to allow the cells to attach. Then, a fresh medium containing various concentrations of the candidate compounds was added to each well. The cells were then incubated for 96 h, thereafter MTT assays were performed, and cell viability was assessed at 570 nm by a microplate reader (ThermoFisher Scientific (Shanghai) Instrument Co., Ltd., Shanghai, China). The optical densities (OD) at 570 nm were measured, and the IC50 of the target compounds was calculated by using GraphPad Prism 5.0 software to perform nonlinear fitting with the cell survival rate under different concentrations of the compounds.

[2] = test system: PC-3 (prostate cancer cell line); experiment: MTT antiproliferative assay, PC3; assay type: cell-based, human; conditions: 96 h incubation
Method: as §1, §2

[3] = test system: MCF-7 (breast cancer cell line); experiment: MTT antiproliferative assay, MCF7; assay type: cell-based, human; conditions: 96 h incubation
Method: as §1, §2

[4] = test system: HL7702 (human liver normal cell line); experiment: MTT cytotoxicity assay, HL7702; assay type: cell-based; conditions: L02, HL7702 normal liver cells, 96 h incubation
Method: as §1, §2

[5] = test system: A549 (non-small cell lung cancer cell line); experiment: MTT antiproliferative assay, A549; assay type: cell-based, human; conditions: 96 h incubation
Method: as §1, §2

MCF-7 cells = experiment: Cell cycle analysis by flow cytometry (PI staining); assay type: cell-based, human; conditions: for percentage of cells in the G2/M phase: 72 h
Method: The effect of compound 9b on the cell cycle was assayed.
[…] After an incubation period, the cells were collected, centrifuged, and fixed with ice-cold ethanol (70%). The cells were then treated with buffer containing RNAse A and 0.1% Triton X-100 and then stained with the propidium iodide (PI). The samples were analyzed on a flow cytometer (Becton, Dickinson, Franklin Lakes, NJ, USA). Data were analyzed using Flowjo software v9.0.

SMILES | IC50 ([1]; Homo sapiens, HCT-116, 96 h) | melting point | IC50 ([2]; Homo sapiens, 96 h) | IC50 ([3]; Homo sapiens, MCF7, 96 h) | IC50 [4] | IC50 ([5]; Homo sapiens, A549, 96 h) | IC50 [5] | IC50 [2] | IC50 [3] | IC50 [1] | percentage of cells in the G2/M phase (MCF-7 cells; MCF-7, 2.5 μM) | percentage of cells in the G2/M phase (MCF-7 cells; MCF-7, 5 μM) | percentage of cells in the G2/M phase (MCF-7 cells; MCF-7, 10 μM) | percentage of cells in the G2/M phase (MCF-7 cells; MCF-7, 20 μM) | effect on the cell cycle (MCF-7 cells; MCF-7, 2.5-20 μM, concentration-dependent)
COc1cc(CNC(=O)Nc2ccc(OC(F)(F)F)cc2)ccc1OCc1nccc(OCC(F)(F)F)c1C [8a, 1-(3-methoxy-4-((3-methyl-4-(2,2,2-trifluoroethoxy)pyridin-2-yl)methoxy)benzyl)-3-(4-(trifluoromethoxy)phenyl)urea] | 7.25 ± 0.87 µM | 158.8 to 159.3 °C | > 50 µM | > 50 µM | > 50 µM | 5.3 ± 1.45 µM | – | – | – | – | – | – | – | – | –
COc1cc(CNC(=O)Nc2ccc(F)c(Cl)c2)ccc1OCc1nccc(OCC(F)(F)F)c1C [8b, 1-(3-chloro-4-fluorophenyl)-3-(3-methoxy-4-((3-methyl-4-(2,2,2-trifluoroethoxy)pyridin-2-yl)methoxy)benzyl)urea] | 9.33 ± 1.38 µM | 167.8 to 169.1 °C | 29.1 ± 5.81 µM | 11 ± 1.68 µM | > 50 µM | 17.7 ± 5.65 µM | – | – | – | – | – | – | – | – | –
COc1cc(CNC(=O)Nc2ccc(C(F)(F)F)cc2)ccc1OCc1nccc(OCC(F)(F)F)c1C [8c, 1-(3-methoxy-4-((3-methyl-4-(2,2,2-trifluoroethoxy)pyridin-2-yl)methoxy)benzyl)-3-(4-(trifluoromethyl)phenyl)urea] | 11.4 ± 3.28 µM | 169.9 to 171 °C | > 50 µM | > 50 µM | > 50 µM | < 5 µM | 4.88 ± 1.94 µM | – | – | – | – | – | – | – | –
COc1cc(CNC(=O)Nc2cccc(C(F)(F)F)c2)ccc1OCc1nccc(OCC(F)(F)F)c1C [8d, 1-(3-methoxy-4-((3-methyl-4-(2,2,2-trifluoroethoxy)pyridin-2-yl)methoxy)benzyl)-3-(3-(trifluoromethyl)phenyl)urea] | 9.44 ± 1.22 µM | 153.2 to 154.2 °C | > 50 µM | > 50 µM | > 50 µM | 26.5 ± 5.66 µM | – | – | – | – | – | – | – | – | –
COc1ccc(NC(=O)NCc2ccc(OCc3nccc(OCC(F)(F)F)c3C)c(OC)c2)cc1 [8e, 1-(3-methoxy-4-((3-methyl-4-(2,2,2-trifluoroethoxy)pyridin-2-yl)methoxy)benzyl)-3-(4-methoxyphenyl)urea] | 28.8 ± 3.11 µM | 179.5 to 180.3 °C | > 50 µM | > 50 µM | > 50 µM | 29.8 ± 5.09 µM | – | – | – | – | – | – | – | – | –
COc1cc(CNC(=O)Nc2cccc([N+](=O)[O-])c2)ccc1OCc1nccc(OCC(F)(F)F)c1C [8f, 1-(3-methoxy-4-((3-methyl-4-(2,2,2-trifluoroethoxy)pyridin-2-yl)methoxy)benzyl)-3-(3-nitrophenyl)urea] | 13.3 ± 2.78 µM | 168.9 to 170.5 °C | 15.9 ± 0.73 µM | 13.3 ± 2.27 µM | > 50 µM | 12.4 ± 0.6 µM | – | – | – | – | – | – | – | – | –
COc1ccc(CNC(=O)NCc2ccc(OCc3nccc(OCC(F)(F)F)c3C)c(OC)c2)cc1 [8g, 1-(3-methoxy-4-((3-methyl-4-(2,2,2-trifluoroethoxy)pyridin-2-yl)methoxy)benzyl)-3-(4-methoxybenzyl)urea] | 7.84 ± 1.4 µM | 153 to 154.2 °C | > 50 µM | > 50 µM | > 50 µM | > 50 µM | – | – | – | – | – | – | – | – | –
CCOc1ccc(CNC(=O)NCc2ccc(OCc3nccc(OCC(F)(F)F)c3C)c(OC)c2)cc1 [8h, 1-(4-ethoxybenzyl)-3-(3-methoxy-4-((3-methyl-4-(2,2,2-trifluoroethoxy)pyridin-2-yl)methoxy)benzyl)urea] | 23.3 ± 3.12 µM | 148.9 to 149.9 °C | > 50 µM | > 50 µM | > 50 µM | 10.9 ± 2.02 µM | – | – | – | – | – | – | – | – | –
COc1cc(CNC(=O)NCc2ccc(N(C)C)cc2)ccc1OCc1nccc(OCC(F)(F)F)c1C [8i, 1-(4-(dimethylamino)benzyl)-3-(3-methoxy-4-((3-methyl-4-(2,2,2-trifluoroethoxy)pyridin-2-yl)methoxy)benzyl)urea] | 10.9 ± 2.85 µM | 159.4 to 161.4 °C | > 50 µM | > 50 µM | > 50 µM | 9.85 ± 4.4 µM | – | – | – | – | – | – | – | – | –
COc1cc(CN(C(=O)Nc2ccc(OC(F)(F)F)cc2)C2CCN(C)CC2)ccc1OCc1nccc(OCC(F)(F)F)c1C [9a, 1-(3-methoxy-4-((3-methyl-4-(2,2,2-trifluoroethoxy)pyridin-2-yl)methoxy)benzyl)-1-(1-methylpiperidin-4-yl)-3-(4-(trifluoromethoxy)phenyl)urea] | 4.41 ± 0.14 µM | 127.3 to 129.4 °C | < 5 µM | < 3 µM | > 50 µM | 17.5 ± 2.95 µM | – | 4.1 ± 0.19 µM | 2.59 ± 0.29 µM | – | – | – | – | – | –
COc1cc(CN(C(=O)Nc2ccc(C(F)(F)F)cc2)C2CCN(C)CC2)ccc1OCc1nccc(OCC(F)(F)F)c1C [9b, 1-(3-methoxy-4-((3-methyl-4-(2,2,2-trifluoroethoxy)pyridin-2-yl)methoxy)benzyl)-1-(1-methylpiperidin-4-yl)-3-(4-(trifluoromethyl)phenyl)urea] | < 3 µM | 138.4 to 140.5 °C | < 5 µM | < 3 µM | > 50 µM | < 5 µM | 4.93 ± 0.46 µM | 3.36 ± 0.17 µM | 2.56 ± 0.07 µM | 2.9 ± 0.16 µM | 16.7% | 23.5% | 27.7% | 39.3% | obvious G2/M arrest
COc1ccc(NC(=O)N(Cc2ccc(OCc3nccc(OCC(F)(F)F)c3C)c(OC)c2)C2CCN(C)CC2)cc1 [9c, 1-(3-methoxy-4-((3-methyl-4-(2,2,2-trifluoroethoxy)pyridin-2-yl)methoxy)benzyl)-3-(4-methoxyphenyl)-1-(1-methylpiperidin-4-yl)urea] | 12.9 ± 1.59 µM | 179.1 to 180.8 °C | 12.3 ± 1.75 µM | 4.65 ± 0.73 µM | > 50 µM | 15.8 ± 1.51 µM | – | – | – | – | – | – | – | – | –
COc1cc(CN(C(=O)Nc2cccc(C(F)(F)F)c2)C2CCN(C)CC2)ccc1OCc1nccc(OCC(F)(F)F)c1C [9d, 1-(3-methoxy-4-((3-methyl-4-(2,2,2-trifluoroethoxy)pyridin-2-yl)methoxy)benzyl)-1-(1-methylpiperidin-4-yl)-3-(3-(trifluoromethyl)phenyl)urea] | < 3 µM | 160.4 to 162.2 °C | < 5 µM | < 3 µM | > 50 µM | < 5 µM | 3.17 ± 0.22 µM | 3.62 ± 0.27 µM | 2.63 ± 0.08 µM | 2.56 ± 0.26 µM | – | – | – | – | –
COc1cc(CN(C(=O)Nc2ccc(F)c(Cl)c2)C2CCN(C)CC2)ccc1OCc1nccc(OCC(F)(F)F)c1C [9e, 3-(3-chloro-4-fluorophenyl)-1-(3-methoxy-4-((3-methyl-4-(2,2,2-trifluoroethoxy)pyridin-2-yl)methoxy)benzyl)-1-(1-methylpiperidin-4-yl)urea] | 5.82 ± 0.21 µM | 176.2 to 177.7 °C | < 5 µM | < 3 µM | > 50 µM | 5.48 ± 4.36 µM | – | 4.53 ± 0.33 µM | 2.56 ± 0.16 µM | – | – | – | – | – | –
COc1cc(CN(C(=O)Nc2cccc([N+](=O)[O-])c2)C2CCN(C)CC2)ccc1OCc1nccc(OCC(F)(F)F)c1C [9f, 1-(3-methoxy-4-((3-methyl-4-(2,2,2-trifluoroethoxy)pyridin-2-yl)methoxy)benzyl)-1-(1-methylpiperidin-4-yl)-3-(3-nitrophenyl)urea] | 5.18 ± 0.33 µM | 157.5 to 159.1 °C | 7.39 ± 0.63 µM | 3.18 ± 0.3 µM | > 50 µM | 6.09 ± 0.29 µM | – | – | – | – | – | – | – | – | –
CCOc1ccc(CNC(=O)N(Cc2ccc(OCc3nccc(OCC(F)(F)F)c3C)c(OC)c2)C2CCN(C)CC2)cc1 [9g, 3-(4-ethoxybenzyl)-1-(3-methoxy-4-((3-methyl-4-(2,2,2-trifluoroethoxy)pyridin-2-yl)methoxy)benzyl)-1-(1-methylpiperidin-4-yl)urea] | < 3 µM | 119 to 121.2 °C | 6.25 ± 0.43 µM | 4.23 ± 0.47 µM | > 50 µM | 6.04 ± 0.41 µM | – | – | – | 2.93 ± 0.26 µM | – | – | – | – | –
CNC(=O)c1cc(Oc2ccc(NC(=O)Nc3ccc(Cl)c(C(F)(F)F)c3)cc2)ccn1 [sorafenib, reference compound] | 3.88 ± 0.36 µM | – | 5.26 ± 0.46 µM | 3.54 ± 0.19 µM | > 50 µM | 6.16 ± 0.46 µM | – | – | – | – | – | – | – | – | –
